Data published in patent US7442687B2, “2-polycyclic propynyl adenosine analogs having A2A agonist activity” (The University of Virginia Patent Foundation, priority 2004, dated 2008).
Read-outs that look alike come from different tables or passages of the source.

Experiments:
human A3 AR = target: T1, human A3 AR (Homo sapiens, UniProt P0DMS8); assay: Radioligand binding (125I-ABA competition) to human A3 AR in HEK 293 cell membranes; details: read-out: Binding Affinity A3
T1 construct: expressed in transfected cells
T1 sequence (P0DMS8 1-318): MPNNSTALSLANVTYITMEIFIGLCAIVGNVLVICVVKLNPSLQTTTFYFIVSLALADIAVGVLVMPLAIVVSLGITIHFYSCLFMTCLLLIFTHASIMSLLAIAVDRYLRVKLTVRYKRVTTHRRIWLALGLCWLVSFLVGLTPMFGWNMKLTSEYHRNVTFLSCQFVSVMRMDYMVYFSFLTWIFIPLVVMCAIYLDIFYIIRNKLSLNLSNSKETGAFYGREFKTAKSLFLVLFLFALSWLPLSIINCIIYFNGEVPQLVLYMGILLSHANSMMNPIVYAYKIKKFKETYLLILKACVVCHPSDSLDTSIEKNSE
Protocol: (§1) Sf9 cells were cultured in Grace's medium supplemented with 10% fetal bovine serum, 2.5 μg/ml amphotericin B and 50 μg/ml gentamycin in an atmosphere of 50% N2/50% O2. Viral infection was performed at a density of 2.5×10^6 cells/mL with a multiplicity of infection of two for each virus used. Infected cells were harvested 3 days post-infection and washed twice in insect PBS (PBS pH 6.3). Cells were then resuspended in lysis buffer (20 mM HEPES pH 7.5, 150 mM NaCl, 3 mM MgCl2, 1 mM β-mercaptoethanol (BME), 5 μg/mL leupeptin, 5 μg/mL pepstatin A, 1 μg/mL aprotinin, and 0.1 mM PMSF) and snap frozen for storage at −80° C. Cells were thawed on ice, brought to 30 mL total volume in lysis buffer, and burst by N2 cavitation (600 psi for 20 minutes). A low-speed centrifugation was performed to remove any unlysed cells (1000×g for 10 minutes), followed by a high-speed centrifugation (17,000×g for 30 minutes). The pellet from the final centrifugation was homogenized in buffer containing 20 mM HEPES pH 8, 100 mM NaCl, 1% glycerol, 2 μg/mL leupeptin, 2 μg/mL pepstatin A, 2 μg/mL Aprotinin, 0.1 mM PMSF, and 10 μM GDP using a small glass homogenizer followed by passage through a 26 gauge needle. Membranes were aliquoted, snap frozen in liquid N2, and stored at −80° C. Membranes from cells stably expressing the human A1 AR (CHO K1 cells) or A3 AR (HEK 293 cells) were prepared as described (Robeva et al., 1996).
(§2) Radioligand binding to recombinant human A2A receptors in Sf9 cell membranes was performed using either the radio labeled agonist, ^125I-APE (Luthin et al., 1995) or the radio labeled antagonist, ^125I-ZM241385 (^1251-ZM). To detect the high affinity, GTPγS-sensitive state of A1 and A3 AR, we used the agonist, ^125I-ABA (Linden et al., 1985;Linden et al., 1993). Binding experiments were performed in triplicate with 5 μg (A2A) or 25 μg (A1 and A3) membrane protein in a total volume of 0.1 mL HE buffer (20 mM HEPES and 1 mM EDTA) with 1 U/mL adenosine deaminase and 5 mM MgCl2 with or without 50 μM GTPγS. Membranes were incubated with radioligands at room temperature for three hours (for agonists) or two hours (for antagonists) in Millipore Multiscreen® 96-well GF/C filter plates and assays were terminated by rapid filtration on a cell harvester (Brandel, Gaithersburg, Md.) followed by 4×150 μl washes over 30 seconds with ice cold 10 mM Tris-HCl, pH 7.4, 10 mM MgCl2. Nonspecific binding was measured in the presence of 50 μM NECA. Competition binding assays were performed as described (Robeva et al., 1996) using 0.5-1 nM ^125I-APE, ^125I-ZM241385, or ^125I-ABA. […] The Ki values for competing compound binding to a single site were derived from IC50 values with correction for radioligand and competing compound depletion as described previously (Linden, 1982).

[1] = target: T2, recombinant human A2A receptors (Homo sapiens, UniProt P29274); assay: Radioligand binding to recombinant human A2A receptors in Sf9 cell membranes; details: recombinant human A2A receptor, 125I-APE or 125I-ZM241385, read-out: Binding Affinity A2A
T2 construct: expressed in transfected cells; host or cells: Sf9 insect cells, viral infection
T2 sequence (P29274 whole entry): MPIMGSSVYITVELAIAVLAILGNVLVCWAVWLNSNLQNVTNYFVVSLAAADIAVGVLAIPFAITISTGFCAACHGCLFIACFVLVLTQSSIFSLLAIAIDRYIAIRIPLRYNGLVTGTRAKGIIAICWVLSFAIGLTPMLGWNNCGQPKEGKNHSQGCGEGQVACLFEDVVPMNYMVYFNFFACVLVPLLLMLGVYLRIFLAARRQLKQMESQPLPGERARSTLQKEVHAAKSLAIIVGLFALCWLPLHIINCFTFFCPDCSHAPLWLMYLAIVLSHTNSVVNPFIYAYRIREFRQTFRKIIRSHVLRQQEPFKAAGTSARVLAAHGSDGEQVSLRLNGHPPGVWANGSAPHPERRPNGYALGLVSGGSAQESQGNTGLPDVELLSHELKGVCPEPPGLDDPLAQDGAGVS
Protocol: as §1, §2

human A1 AR = target: T3, human A1 AR (Homo sapiens, UniProt P30542); assay: Radioligand binding (125I-ABA competition) to human A1 AR in CHO K1 cell membranes; details: read-out: Binding Affinity A1
T3 construct: expressed in transfected cells
T3 sequence (P30542 1-326): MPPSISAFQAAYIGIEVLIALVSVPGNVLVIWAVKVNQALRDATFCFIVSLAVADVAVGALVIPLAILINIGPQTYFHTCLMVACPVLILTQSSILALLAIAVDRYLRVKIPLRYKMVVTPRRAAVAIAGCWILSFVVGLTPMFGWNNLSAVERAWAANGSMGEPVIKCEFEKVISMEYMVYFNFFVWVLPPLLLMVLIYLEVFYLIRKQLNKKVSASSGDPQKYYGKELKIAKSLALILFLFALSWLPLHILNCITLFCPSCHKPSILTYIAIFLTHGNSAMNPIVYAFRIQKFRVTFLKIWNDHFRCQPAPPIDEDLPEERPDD
Protocol: as §1, §2

human neutrophils = assay: Human neutrophil oxidative activity, luminol-enhanced chemiluminescence (TNF-primed, fMLP-stimulated); assay type: cell-based; details: peak chemiluminescence
Excerpt: Chemiluminescence Methods: Luminol enhanced chemiluminescence, a measure of neutrophil oxidative activity, is dependent upon both superoxide production and mobilization of the granule enzyme myeloperoxidase. The light is emitted from unstable high-energy oxygen species such as hypochlorous acid and singlet oxygen generated by activated neutrophils.
Purified human neutrophils (2×10^6/ml) suspended in Hanks balanced salt solution containing 0.1% human serum albumin (HA), adenosine deaminase (1 U/mL) and rolipram (100 nM) were incubated (37° C.) in a water bath for 15 min with or without rhTNF(10 U/ml). Following incubation 100 µL aliquots of the PMN were transferred to wells (White walled clear bottom 96 well tissue culture plates Costar #3670; 2 wells/condition) containing […] and luminol (final concentration […]) with or without adenosine agonist (final agonist concentrations 0.01-1000 nM). The plate was incubated 5 min (37° C.) and then FMLP (501 in HA; final concentration […]) was added to all wells.
Peak chemiluminescence was determined with a Victor 1420 Multilabel Counter in the chemiluminescence mode using the Wallace Workstation software. Data are presented as peak chemiluminescence as percent of activity in the absence of an adenosine agonist. The EC50 was determined using PRISM software. All compounds were tested with PMNs from three separate donors.
Purified neutrophils (˜98% neutrophils and >95% viable by trypan blue exclusion) containing <1 platelet per 5 neutrophils and <50 pg/ml endotoxin (limulus amebocyte lysate assay) were obtained from normal heparinized (10 U/ml) venous blood by a one step Ficoll-hypaque separation procedure (A. Ferrante et al., J. Immunol. Meth., 36, 109 (1980)).
Luminol-enhanced chemiluminescence, a measure of neutrophil oxidative activity, is dependent upon both superoxide production and mobilization of the lysosomal granule enzyme myeloperoxidase. The light is emitted from unstable high-energy oxygen species generated by activated neutrophils. Purified neutrophils (5-10×10^5/ml) were incubated in Hanks balanced salt solution containing 0.1% human serum albumin (1 ml) with the tested A2A agonist with or without rolipram and with or without tumor necrosis factor-alpha (1 U/ml) for 30 minutes at 37° C. in a shaking water bath. Then luminol (1×10^−4 M) enhanced f-met-leu-phe (1 mcM) stimulated chemiluminescence was read with a Chronolog® Photometer (Crono-log Corp., Havertown, Pa.) at 37° C. for 2-4 minutes. Chemiluminescence is reported as relative peak light emitted (=height of the curve) compared to samples with tumor necrosis factor-alpha and without agonist or rolipram.

[2] = human neutrophil experiment with Rolipram, read-out: Functional + Roli
[3] = human neutrophil experiment without Rolipram, read-out: Functional

| Compound | Ki (human A3 AR) [nM] | Ki [1] [nM] | Ki (human A1 AR) [nM] | EC50 (human neutrophils; [2]) [nM] | EC50 (human neutrophils; [3]) [nM] | EC50 (human neutrophils; Homo sapiens, Neutrophil, human neutrophil experiment with Rolipram, read-out: Functional + Roli) [nM] | EC50 (human neutrophils; Homo sapiens, Neutrophil, human neutrophil experiment without Rolipram, read-out: Functional) [nM] |
| --- | --- | --- | --- | --- | --- | --- | --- |
| CCNC(=O)[C@H]1O[C@@H](n2cnc3c(N)nc(C#CC4(O)CC5CCC4C5)nc32)C(O)C1O (single isomer, unassigned) [Example 2, 5-[6-Amino-2-(2-hydroxy-bicyclo[2.2.1]hept-2-ylethynyl)-purin-9-yl]-3,4-dihydroxy-tetrahydro-furan-2-carboxylic acid ethylamide] | 3 | 0.3 | 11 | 0.058 | 0.5 |  |  |
| CCNC(=O)[C@H]1O[C@@H](n2cnc3c(N)nc(C#CC4(O)CCCC5CCCCC54)nc32)C(O)C1O (stereo in doubt) [Example 4, 5-[6-Amino-2-(1-hydroxy-decahydro-naphthalen-1-ylethynyl)-purin-9-yl]-3,4-dihydroxy-tetrahydro-furan-2-carboxylic acid ethylamide] | 28.3 | 6.4 | 7.3 | 3.7 | 25 |  |  |
| CCNC(=O)[C@H]1O[C@@H](n2cnc3c(N)nc(C#CC4(O)CC5CCC4C5)nc32)C(O)C1O (single isomer, unassigned) [Example 1, 5-[6-Amino-2-(2-hydroxy-bicyclo[2.2.1]hept-2-ylethynyl)-purin-9-yl]-3,4-dihydroxy-tetrahydro-furan-2-carboxylic acid ethylamide] | 10 | 0.2 | 31 | 0.22 | 3.1 |  |  |
| CCNC(=O)[C@H]1O[C@@H](n2cnc3c(N)nc(C#CC4(O)C5CC6CC(C5)CC4C6)nc32)C(O)C1O (stereo in doubt) [Example 3, 5-[6-Amino-2-(2-hydroxy-adamantan-2-ylethynyl)-purin-9-yl]-3,4-dihydroxy-tetrahydro-furan-2-carboxylic acid ethylamide] | 4 | 0.2 | 75 |  |  | 0.22 | 3.8 |
| CCNC(=O)[C@H]1O[C@@H](n2cnc3c(N)nc(C#CC4(O)CCCC5CCCCC54)nc32)C(O)C1O (stereo in doubt) [Example 5, 5-[6-Amino-2-(1-hydroxy-decahydro-naphthalen-1-ylethynyl)-purin-9-yl]-3,4-dihydroxy-tetrahydro-furan-2-carboxylic acid ethylamide] | 4.9 | 0.7 | 2.6 | 0.28 | 2.5 |  |  |
| Nc1nc(C#CC2(O)C3CC4CC(C3)CC2C4)nc2c1ncn2[C@@H]1O[C@H](CO)C(O)C1O (stereo in doubt) [Example 6, 2-[6-Amino-2-(2-hydroxy-adamantan-2-ylethynyl)-purin-9-yl]-5-hydroxymethyl-tetrahydro-furan-3,4-diol] | 2.9 | 0.6 | 28.5 | 0.3 | 4.9 |  |  |
